Test results: article PMC8219027, “A small-molecule inhibitor of the BRCA2-RAD51 interaction modulates RAD51 assembly and potentiates DNA damage-induced cell death” (Cell Chemical Biology, 2021)
Like-named read-outs stand apart in the source and are kept apart here.

What was measured:
[1] = system: HCT116 cells (BRCA2 wild-type); experiment: SRB growth inhibition assay, combination of CAM833 and PARP1 inhibitor AZD2461; assay type: cell-based, human; details: HCT116, fixed dose 0.1 μM or 1 μM, 96 h
Experimental: (§1) Adherent cell lines (HCT116 and A549 cells) were seeded into flat-bottomed tissue culture 96-well plates in a volume of 150 μL of growth medium. HCT116 cells were seeded at 750 cells per well and A549 cells were seeded at 1000 cells per well. After 24 hours, compounds dissolved in DMSO were diluted in growth medium and were added to cells such that the final DMSO concentration was 1% (v/v) and the final volume in the well was 200 μL. Cells were then incubated in the presence of compound for 96 hours before fixation.
(§2) Medium was removed from cells and 100 μL of cold 1% (v/v) trichloroacetic acid was added for 30 minutes at 4 degrees. The plates were washed three times in tap water and left to dry at room temperature. The fixed cells were stained in a 0.057% sulphorodamine B/1% acetic acid solution (w/v) and incubated at room temperature with agitation for 30 minutes after which the dye was removed and the plates washed in 1% (v/v) acetic acid and left to dry. The dye was then solubilised in 10 mM Tris solution (pH8) and incubated for 30 minutes under agitation. The plates were then read on a PHERAstar plus plate reader (BMG Labtech) using the fluorescence intensity module (540-590 nm). Growth inhibition was calculated relative to DMSO controls and GI50 values were calculated using Graphpad Prism.
For the PARP inhibitor experiments, the SRB method was used as described above to measure growth inhibition with the exception that cells were seeded into 150 μl medium and then a combination of either 25 μl of CAM833, AZD2461 (SelleckChem; #S7029) or DMSO was added to give a total volume of 200 ul in the well.

[2] = system: HCT116 cells; experiment: SRB growth inhibition assay; assay type: cell-based, human; details: SRB 96 h, Figure 6D (cell line not given)
Experimental: as §1, §2

[3] = biological target: T1, HumRadA2 (Pyrococcus furiosus, UniProt O74036, D220A/E219S/I169M/K221M/V202Y/Y201A); experiment: Isothermal titration calorimetry (ITC) against HumRadA2; assay type: binding, Pyrococcus furiosus (humanised RadA)
Experimental: ITC was performed using a Microcal iTC200 instrument at 25°C. Experiments typically involved titrating a 10-fold excess of ligand in the injection syringe against the protein ([HumRadA2] = 60 μM or [ChimRAD51] = 20 μM) in either 200 mM Tris buffer at pH 7.5 and 100 mM NaCl (HumRadA2) or 20 mM potassium phosphate at pH 8.0 and 192 mM KCl (ChimRAD51). Titrations were typically performed with 5-10% DMSO and care was taken to ensure that the DMSO concentrations in the protein and ligand solutions were well matched. The raw ITC data were fitted using a single-site binding model in Microcal ITC LLC data analysis program in the Origin 7.0 package to derive the dissociation constant, stoichiometry and ΔH of binding. […]

[4] = Aqueous solubility; details: for profiling in cell-based assays
[5] = biological target: T1, HumRadA2; details: ref Scott et al., 2016; read-out: Kd against HumRadA2 by ITC; cited from earlier work
[6] = biological target: ChimRAD51; parameters: method as in Moschetti et al., 2016; details: ref Moschetti et al., 2016; read-out: Kd of binding to ChimRAD51 by ITC; cited from earlier work
[7] = biological target: ChimRAD51; parameters: method as in Moschetti et al., 2016; details: direct binding of BRC4 peptide; ref Moschetti et al., 2016; read-out: Kd of binding to ChimRAD51 by FP; cited from earlier work
[8] = biological target: ChimRAD51 (chimeric RAD51/RadA protein) (Pyrococcus furiosus | human); experiment: fluorescence polarisation; competition: 10 nM Alexa Fluor 488-labelled BRC4 peptide and 50 nM ChimRAD51 (about 80-90% saturation), increasing concentration of competitor; isotherms fitted with the expression of Wang (1995)

With `COC1CCN(C(=O)c2cc(Cc3n[nH]c(=O)c4ccccc34)ccc2F)CC1` [AZD2461, reference compound] as the molecule, how does the “growth inhibition by AZD2461 alone (in words)” value [1] read?
The value was “little effect”.

With `N.N.O=C([O-])C1(C(=O)[O-])CCC1.[Pt+2]` [Carboplatin, reference compound] as the molecule, how does the IC50 ([2]; 0 Gy IR) read?
Its IC50 is 9.9 µM.

And the IC50 ([2]; 1 Gy IR)?
Its IC50 is 9 µM.

What about the IC50 ([2]; 2 Gy IR) of the same molecule?
The IC50 was 10.6 µM.

What about the IC50 ([2]; 3 Gy IR) of the same molecule?
Its IC50 is 11.1 µM.

With `Nc1cc2ccccc2cc1C(=O)O` [Compound 3, 3-amino-2-naphthoic acid] as the molecule, how does the Kd [3] read?
The Kd was 1300 µM.

Which Kd [3] does the source give for `C[C@H](NC(=O)[C@@H]1CCCN1C(=O)[C@H](Cc1c[nH]cn1)NC(=O)c1cc2ccccc2cc1N)C(N)=O` [Compound 4] here?
The Kd was 3 µM.

Which Kd [3] does the source give for `C[C@H](NC(=O)c1ccc2ccccc2c1)C(=O)N1CCC[C@H]1C(=O)N[C@@H](C)c1ccccc1` [Compound 5, (S)-1-((2-Naphthoyl)-L-alanyl)-N-((S)-1-phenylethyl)pyrrolidine-2-carboxamide] here?
Its Kd is 0.22 µM.

What about the “solubility in aqueous media (in words)” value [4] of the same molecule?
Its value is “too insoluble”.

Which Kd [5] does the source give for Ac-FHTA-NH2 [Compound 1] here?
Its Kd is 280 µM.

For “BRC4 peptide: BRC4 repeat peptide of BRCA2 (CKEPTLLGFHTASGKKVKIAKESLDKVKNLFDEKEQ; Alexa Fluor 488 (maleimide dye) on the additional N-terminal cysteine)”, which Kd [6] is on record?
Its Kd is 0.006 µM.

What about the Kd [7] of the same molecule?
Its Kd is 0.004 µM.

For “N-terminal "FxxA" half of the BRC4 repeat (FxxA half-peptide)”, which Kd [8] is on record?
The Kd was 36 µM.
